Test results reported in patent US9815832B2 (priority 2013, dated 2017).

What follows are molecules tested against human recombinant PDE4B (Homo sapiens (Human), UniProt Q07343, S133E/S654A/S659A/S661A). Conditions: read-out: Human PDE4B FL.
human recombinant PDE4B, sequence (Q07343 122-736 S133E/S654A/S659A/S661A): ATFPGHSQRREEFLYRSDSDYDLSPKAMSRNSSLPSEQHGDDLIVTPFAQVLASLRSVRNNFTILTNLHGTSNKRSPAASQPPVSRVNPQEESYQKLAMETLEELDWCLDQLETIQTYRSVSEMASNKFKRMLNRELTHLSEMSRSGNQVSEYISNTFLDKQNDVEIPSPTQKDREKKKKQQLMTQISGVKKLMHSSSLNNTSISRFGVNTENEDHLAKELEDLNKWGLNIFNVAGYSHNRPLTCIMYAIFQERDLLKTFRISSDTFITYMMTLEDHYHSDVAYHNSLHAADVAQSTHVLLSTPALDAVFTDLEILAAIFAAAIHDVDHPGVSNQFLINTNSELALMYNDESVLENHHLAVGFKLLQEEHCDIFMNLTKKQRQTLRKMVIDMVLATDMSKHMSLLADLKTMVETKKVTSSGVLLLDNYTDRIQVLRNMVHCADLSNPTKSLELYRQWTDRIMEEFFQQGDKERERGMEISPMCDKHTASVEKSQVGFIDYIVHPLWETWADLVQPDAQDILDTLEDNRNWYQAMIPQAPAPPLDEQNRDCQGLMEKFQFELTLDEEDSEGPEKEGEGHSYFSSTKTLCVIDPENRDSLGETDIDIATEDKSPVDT
Procedure: Reactions are incubated for 30 min at 25° C. The addition of 20 μL of 8 mg/mL yitrium silicate SPA beads (PerkinElmer) stops the reaction. The plates are sealed (TopSeal, PerkinElmer) and the beads are allowed to settle for 8 hrs, after which they are read on the Trilux Microbeta overnight.
With `Cc1nc2ccc(-n3c(C(=O)NC4CC4)nc4cccnc43)cc2s1` [Example 73, N-Cyclopropyl-3-(2-methyl-1,3-benzothiazol-6-yl)-3H-imidazo[4,5-b]pyridine-2-carboxamide] the IC50 was 516 nM.
In the case of `Cc1cc(C)cc(-n2c(C(=O)NC3CC3)nc3cccnc32)c1` [Example 76, N-Cyclopropyl-3-(3,5-dimethylphenyl)-3H-imidazo[4,5-b]pyridine-2-carboxamide], the IC50 is reported as 374 nM.
Molecule `N#Cc1ccc(-n2c(C(=O)NC3CC3)nc3cccnc32)cn1` [Example 39, 3-(6-Cyanopyridin-3-yl)-N-cyclopropyl-3H-imidazo[4,5-b]pyridine-2-carboxamide] has an IC50 of 363 nM.
For `Cn1ccc(NC(=O)c2nc3cccnc3n2C2CCCC2)n1` [Example 14, 3-Cyclopentyl-N-(1-methyl-1H-pyrazol-3-yl)-3H-imidazo[4,5-b]pyridine-2-carboxamide], the IC50 was 822 nM.
`Cn1ccc(NC(=O)c2nc3cccnc3n2-c2ccc(Cl)cc2)n1` [Example 24, 3-(4-Chlorophenyl)-N-(1-methyl-1H-pyrazol-3-yl)-3H-imidazo[4,5-b]pyridine-2-carboxamide] was tested, and the IC50 was 211 nM.
Molecule `CCCNC(=O)c1nc2cccnc2n1-c1ccc(Cl)c(F)c1` [Example 6, 3-(4-Chloro-3-fluorophenyl)-N-propyl-3H-imidazo[4,5-b]pyridine-2-carboxamide] has an IC50 of 38.1 nM.
For `CN(C)C(=O)c1nc2cccnc2n1-c1ccc(Cl)c(F)c1` [Example 11, 3-(4-Chloro-3-fluorophenyl)-N,N-dimethyl-3H-imidazo[4,5-b]pyridine-2-carboxamide], the IC50 was 405 nM.
`Cc1ccc(-n2c(C(=O)NC3CC3)nc3cccnc32)c(F)c1` [Example 67, N-Cyclopropyl-3-(2-fluoro-4-methylphenyl)-3H-imidazo[4,5-b]pyridine-2-carboxamide] gave an IC50 of 619 nM.
For `O=C(NC1CC1)c1nc2cccnc2n1C1CCOCC1` [Example 15, N-Cyclopropyl-3-(tetrahydro-2H-pyran-4-yl)-3H-imidazo[4,5-b]pyridine-2-carboxamide], the IC50 was 1730 nM.
